Consider 12 compounds from the SangsterLogP compilation.

The structures appear in SMILES notation.

This data set in a line: method code SF-GLC,AS, from DOI: 10.1021/jf60192a013, PMID: 4840568.
`CNP(=O)(OC)SC` (configuration not stated) came in with a logP of -0.07.
As for `CCCOP(N)(=O)SCCC` (configuration not stated), the logP came to 1.23.
The figure for `CCCCCCNP(=O)(OC)SC` (configuration not stated) is 1.11.
Compound `CCNP(=O)(OC)SC` (configuration not stated) came in with a lipophilicity (logP) of 0.07.
The figure for `CCCCNP(=O)(OC)SC` (configuration not stated) is 0.94; for `CCC(C)NP(=O)(OC)SC` (configuration not stated) it is 0.95; for `CCCNP(=O)(OC)SC` (configuration not stated) it is 0.65.
For `COP(=O)(NCC(C)C)SC` (configuration not stated), the logP is 0.97.
Compound `COP(N)(=O)SC` (configuration not stated) yielded a logP of -0.66.
`CCOP(N)(=O)SCC` (configuration not stated) had a logP of 0.15.
Next, `COP(=O)(NC(C)(C)C)SC` (configuration not stated): 0.96; `CCCCCCCCNP(=O)(OC)SC` (configuration not stated): 1.51.
